Experiments:
hSERT WT = molecular target: T1, hSERT WT (Homo sapiens, UniProt P31645); assay: ASP^+ binding, hSERT WT; conditions: digitonin-permeabilized cells, read-out: SYR IC50 for Binding
T1 construct: forward and reverse primers were used to amplify a full-length hSERT; expressed in transfected cells; host or cells: HeLa cells (CCL-2), transient, pcDNA3.1

[1] = tested on: hSERT Q111N, G498T, P561G, Q562N; assay: ASP^+ binding, four S2 mutants compared with WT; set-up: species or system human; conditions: P561G, and Q562N
Method: (§1) HeLa cells were cultured in Dulbecco’s Modified Eagle’s Medium supplemented with 10% fetal bovine serum, 100 units/mL penicillin, and 100 μg/mL streptomycin at 37 °C in a humidified 5% CO2 incubator. Cells grown at ~70% confluence in a 6 cm culture dish were transfected with hSERT cDNA in pcDNA3.1 by lipofectamine 2000. Transfected cells were incubated for 12 h at 37 °C with 5% CO2 and then transferred into 96-well plates. After being grown for an additional 12–16 h, the cells were then assayed for APP^+ uptake or ASP^+ binding.
ASP^+ binding to SERT expressed on the cell surface was measured with digitonin-permeabilized cells as described previously. The cells expressing WT or mutants of hSERT were incubated with 10 μM ASP^+ in the presence of 25 μg/mL digitonin at 22 °C for 5 min. After removing excess ASP^+ by 3× rapid washing, ASP^+ fluorescence retained in the cell membrane was determined by fluorescence spectrometry.
hSERT mutants were generated using the Mut Express II Fast Mutagenesis kit (Vazyme, Nanjing, China). Briefly, forward and reverse primers were used to amplify a full-length hSERT. The PCR products were then digested with restriction enzymes, excised from agarose gels, and ligated into pcDNA3.1. All mutations were confirmed by full-length DNA sequencing.

hSERT Y95F = molecular target: T2, hSERT Y95F (Homo sapiens, UniProt P31645, Y95F); assay: APP^+ uptake, hSERT Y95F; assay type: cell-based; conditions: S1 site mutant, read-out: SYR IC50 for Transport
T2 construct: forward and reverse primers were used to amplify a full-length hSERT; expressed in transfected cells; host or cells: HeLa
Method: as §1
Measurement of transport or ligand binding activity of SERT was performed by using its fluorescent substrate (APP^+) or ligand (ASP^+), respectively. The cells transiently expressing WT or mutants of hSERT were applied for various treatments. Briefly, the cells were washed twice with 100 μL KRH buffer containing 20 mM HEPES (Neofroxx, Einhausen, Germany), pH 7.4, 120 mM NaCl, 1.3 mM KCl, 2.2 mM CaCl2, 1.2 mM MgSO4, and 0.1% (w/v) glucose. APP^+ uptake was measured by adding 100 μL KRH buffer containing 2 μM APP^+ and incubating for 5 min at 22 °C. Excess APP^+ was then removed by 3× rapid washing with 100 μL KRH buffer each time. The extent of APP^+ accumulated in the cells was determined by fluorescence spectrometry with an Infinite 200 Pro microplate reader (Tecan, Männedorf, Switzerland). […]

hSERT R564A = molecular target: T3, hSERT R564A (Homo sapiens, UniProt P31645, R564A); assay: ASP^+ binding, hSERT R564A; conditions: S2 site mutant, read-out: SYR IC50 for Binding
T3 construct: forward and reverse primers were used to amplify a full-length hSERT; expressed in transfected cells; host or cells: HeLa

hSERT Q562N = molecular target: T4, hSERT Q562N (Homo sapiens, UniProt P31645, Q562N); assay: APP^+ uptake, hSERT Q562N; assay type: cell-based; conditions: S2 site mutant, read-out: SYR IC50 for Transport
T4 construct: forward and reverse primers were used to amplify a full-length hSERT; expressed in transfected cells; host or cells: HeLa

hSERT F556A = molecular target: T5, hSERT F556A (Homo sapiens, UniProt P31645, F556A); assay: ASP^+ binding, hSERT F556A; conditions: S2 site mutant, read-out: SYR IC50 for Binding
T5 construct: forward and reverse primers were used to amplify a full-length hSERT; expressed in transfected cells; host or cells: HeLa cells, transient, pcDNA3.1

hSERT P499G [2] = molecular target: T6, hSERT P499G (Homo sapiens, UniProt P31645, P499G); assay: ASP^+ binding, hSERT P499G; conditions: S2 site mutant, read-out: SYR IC50 for Binding
T6 construct: forward and reverse primers were used to amplify a full-length hSERT; expressed in transfected cells; host or cells: HeLa cells, transient, pcDNA3.1

SERT S277C/X5C = assay: Cysteine accessibility, cytoplasmic pathway: MTSEA reactivity with S277C/X5C; assay type: cell-based; conditions: 10 μM ligand, digitonin-permeabilized cells, compared with the control
CUMS mice = assay: Forced swim test (FST) in CUMS mice; assay type: in vivo, mouse
Method: C57BL/6 adult (6–8 weeks, body weight, 18–22 g) male mice were maintained and handled in a standard condition at the Experimental Animal Center of Southern Medical University (Guangzhou, China). Animal use was approved by the Animal Use and Care Committee of Southern Medical University (approved code: SMUL2021177, approved date: 12 December 2021). The CUMS procedure was carried out according to a protocol described previously. Except for those in the control group, mice were randomly exposed to two mild unpredictable stressors per day for 3 weeks. The stressors included water deprivation, restraint, tilted cage, wet/no bedding, rotation, peppermint, noise, and inverted light off/on. Mice in the control group were group housed without any stressors throughout the procedure. […] NSFT was performed after 16 h food deprivation, as described previously. The mouse was placed in an open field (24 × 40 × 14 cm), where a new chow was put in the center, and the latency time to bite food was counted over 10 min. Home cage feeding within a 20 min period was measured after the test. FST was carried out according to a protocol described previously. The mouse was placed into a beaker (Bomex, Beijing, China) with a height of 18 cm filled with water (22 ± 1 °C) for 6 min. The immobile time was measured during minutes 2–6. TST was performed according to a previous description. The mouse was suspended from a hook that hung from a suspension bar by placing a piece of adhesive tape on its tail about 1 cm away from the tip. The immobile time during minutes 2–6 was measured.

hSERT L563A = molecular target: T7, hSERT L563A (Homo sapiens, UniProt P31645, L563A); assay: APP^+ uptake, hSERT L563A; assay type: cell-based; conditions: S2 site mutant, read-out: SYR IC50 for Transport
T7 construct: forward and reverse primers were used to amplify a full-length hSERT; expressed in transfected cells; host or cells: HeLa

hSERT Y579A = molecular target: T8, hSERT Y579A (Homo sapiens, UniProt P31645, Y579A); assay: ASP^+ binding, hSERT Y579A; conditions: S2 site mutant, read-out: SYR IC50 for Binding
T8 construct: forward and reverse primers were used to amplify a full-length hSERT; expressed in transfected cells; host or cells: HeLa

hSERT I327A = molecular target: T9, hSERT I327A (Homo sapiens, UniProt P31645, I327A); assay: ASP^+ binding, hSERT I327A; conditions: S2 site mutant, read-out: SYR IC50 for Binding
T9 construct: forward and reverse primers were used to amplify a full-length hSERT; expressed in transfected cells; host or cells: HeLa cells, transient, pcDNA3.1

hSERT P499G [3] = molecular target: T6, hSERT P499G; assay: APP^+ uptake, hSERT P499G; assay type: cell-based; conditions: S2 site mutant, read-out: SYR IC50 for Transport
hSERT T497A = molecular target: T10, hSERT T497A (Homo sapiens, UniProt P31645, T497A); assay: APP^+ uptake, hSERT T497A; assay type: cell-based; conditions: S2 site mutant, read-out: SYR IC50 for Transport
T10 construct: forward and reverse primers were used to amplify a full-length hSERT; expressed in transfected cells; host or cells: HeLa cells, transient, pcDNA3.1

hSERT P560G = molecular target: T11, hSERT P560G (Homo sapiens, UniProt P31645, P560G); assay: ASP^+ binding, hSERT P560G; conditions: S2 site mutant, read-out: SYR IC50 for Binding
T11 construct: forward and reverse primers were used to amplify a full-length hSERT; expressed in transfected cells; host or cells: HeLa cells, transient, pcDNA3.1
T11 sequence (P31645 whole entry P560G): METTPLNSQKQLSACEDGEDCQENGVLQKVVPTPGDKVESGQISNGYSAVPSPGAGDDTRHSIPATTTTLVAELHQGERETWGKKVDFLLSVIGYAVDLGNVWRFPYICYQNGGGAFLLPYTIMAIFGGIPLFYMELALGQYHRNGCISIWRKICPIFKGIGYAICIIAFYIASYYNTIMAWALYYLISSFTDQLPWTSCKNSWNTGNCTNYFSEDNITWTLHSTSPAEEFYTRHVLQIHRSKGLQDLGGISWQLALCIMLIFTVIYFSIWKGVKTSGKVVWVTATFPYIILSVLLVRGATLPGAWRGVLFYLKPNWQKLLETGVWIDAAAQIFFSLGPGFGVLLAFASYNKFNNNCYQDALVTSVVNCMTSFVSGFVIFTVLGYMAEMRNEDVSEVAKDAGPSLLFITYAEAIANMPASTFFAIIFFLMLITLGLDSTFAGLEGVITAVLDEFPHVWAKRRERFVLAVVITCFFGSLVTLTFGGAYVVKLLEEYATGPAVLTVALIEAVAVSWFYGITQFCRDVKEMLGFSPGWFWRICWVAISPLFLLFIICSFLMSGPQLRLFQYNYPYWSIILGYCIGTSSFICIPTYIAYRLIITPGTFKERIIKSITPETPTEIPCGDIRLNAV

T6 sequence (P31645 whole entry P499G): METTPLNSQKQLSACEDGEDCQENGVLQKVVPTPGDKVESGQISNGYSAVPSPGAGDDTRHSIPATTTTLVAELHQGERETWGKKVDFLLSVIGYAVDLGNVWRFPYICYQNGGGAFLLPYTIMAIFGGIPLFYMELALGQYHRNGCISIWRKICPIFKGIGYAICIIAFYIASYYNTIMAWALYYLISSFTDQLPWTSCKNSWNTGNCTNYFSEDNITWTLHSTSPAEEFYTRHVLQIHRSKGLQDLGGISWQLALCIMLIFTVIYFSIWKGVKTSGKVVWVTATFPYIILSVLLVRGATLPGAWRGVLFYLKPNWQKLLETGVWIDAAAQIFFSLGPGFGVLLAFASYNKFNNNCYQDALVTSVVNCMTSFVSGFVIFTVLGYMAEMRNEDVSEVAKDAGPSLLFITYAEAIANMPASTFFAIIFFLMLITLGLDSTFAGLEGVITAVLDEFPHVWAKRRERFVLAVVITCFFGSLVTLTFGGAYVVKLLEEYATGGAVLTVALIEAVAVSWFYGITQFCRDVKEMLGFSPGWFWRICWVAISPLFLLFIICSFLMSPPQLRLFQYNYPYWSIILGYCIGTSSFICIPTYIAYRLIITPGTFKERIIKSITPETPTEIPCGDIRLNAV
T4 sequence (P31645 whole entry Q562N): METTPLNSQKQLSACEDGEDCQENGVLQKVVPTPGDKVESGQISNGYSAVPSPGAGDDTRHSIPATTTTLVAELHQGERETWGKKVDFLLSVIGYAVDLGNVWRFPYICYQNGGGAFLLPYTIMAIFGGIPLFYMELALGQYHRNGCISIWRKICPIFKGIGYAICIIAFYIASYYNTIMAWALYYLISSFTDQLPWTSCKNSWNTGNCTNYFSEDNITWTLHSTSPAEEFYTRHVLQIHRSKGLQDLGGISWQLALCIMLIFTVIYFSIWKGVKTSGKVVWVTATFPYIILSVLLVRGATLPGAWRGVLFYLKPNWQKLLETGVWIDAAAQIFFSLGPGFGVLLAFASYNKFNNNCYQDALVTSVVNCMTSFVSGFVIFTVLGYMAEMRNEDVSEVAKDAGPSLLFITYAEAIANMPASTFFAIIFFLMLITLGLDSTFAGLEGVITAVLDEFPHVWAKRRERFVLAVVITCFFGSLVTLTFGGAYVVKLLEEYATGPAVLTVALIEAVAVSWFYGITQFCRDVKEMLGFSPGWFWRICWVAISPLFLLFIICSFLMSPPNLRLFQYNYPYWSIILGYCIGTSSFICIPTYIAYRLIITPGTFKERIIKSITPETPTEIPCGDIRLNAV
T9 sequence (P31645 whole entry I327A): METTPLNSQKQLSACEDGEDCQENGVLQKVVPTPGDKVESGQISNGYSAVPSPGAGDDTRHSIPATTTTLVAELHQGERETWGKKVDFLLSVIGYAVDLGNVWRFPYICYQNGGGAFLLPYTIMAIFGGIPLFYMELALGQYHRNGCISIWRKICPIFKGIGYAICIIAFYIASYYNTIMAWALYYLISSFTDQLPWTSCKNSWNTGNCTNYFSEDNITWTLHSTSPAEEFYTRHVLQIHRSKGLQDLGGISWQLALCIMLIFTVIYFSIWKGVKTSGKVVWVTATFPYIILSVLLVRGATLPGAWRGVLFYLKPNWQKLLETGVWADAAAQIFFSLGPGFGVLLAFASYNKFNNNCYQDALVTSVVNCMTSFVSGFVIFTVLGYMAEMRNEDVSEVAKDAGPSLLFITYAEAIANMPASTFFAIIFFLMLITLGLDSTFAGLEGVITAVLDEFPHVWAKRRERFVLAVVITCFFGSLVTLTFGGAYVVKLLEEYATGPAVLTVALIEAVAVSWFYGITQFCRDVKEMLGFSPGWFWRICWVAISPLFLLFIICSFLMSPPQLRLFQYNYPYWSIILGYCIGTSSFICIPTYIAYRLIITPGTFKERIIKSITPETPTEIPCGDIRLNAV
T7 sequence (P31645 whole entry L563A): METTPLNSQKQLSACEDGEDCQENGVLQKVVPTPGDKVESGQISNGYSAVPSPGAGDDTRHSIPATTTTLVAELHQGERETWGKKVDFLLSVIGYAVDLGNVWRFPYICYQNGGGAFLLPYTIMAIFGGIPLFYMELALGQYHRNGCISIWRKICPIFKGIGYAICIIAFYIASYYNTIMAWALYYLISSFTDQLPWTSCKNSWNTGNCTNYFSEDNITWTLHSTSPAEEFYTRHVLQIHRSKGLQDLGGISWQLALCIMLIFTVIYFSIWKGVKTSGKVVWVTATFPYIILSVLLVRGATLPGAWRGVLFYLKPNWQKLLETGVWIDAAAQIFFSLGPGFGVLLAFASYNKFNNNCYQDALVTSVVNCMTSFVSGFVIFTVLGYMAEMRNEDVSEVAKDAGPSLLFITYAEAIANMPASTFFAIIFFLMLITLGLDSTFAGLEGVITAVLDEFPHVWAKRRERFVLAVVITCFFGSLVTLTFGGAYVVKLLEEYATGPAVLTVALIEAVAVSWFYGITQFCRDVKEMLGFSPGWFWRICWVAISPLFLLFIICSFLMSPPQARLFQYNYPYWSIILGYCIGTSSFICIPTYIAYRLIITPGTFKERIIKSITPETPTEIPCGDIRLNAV
T2 sequence (P31645 whole entry Y95F): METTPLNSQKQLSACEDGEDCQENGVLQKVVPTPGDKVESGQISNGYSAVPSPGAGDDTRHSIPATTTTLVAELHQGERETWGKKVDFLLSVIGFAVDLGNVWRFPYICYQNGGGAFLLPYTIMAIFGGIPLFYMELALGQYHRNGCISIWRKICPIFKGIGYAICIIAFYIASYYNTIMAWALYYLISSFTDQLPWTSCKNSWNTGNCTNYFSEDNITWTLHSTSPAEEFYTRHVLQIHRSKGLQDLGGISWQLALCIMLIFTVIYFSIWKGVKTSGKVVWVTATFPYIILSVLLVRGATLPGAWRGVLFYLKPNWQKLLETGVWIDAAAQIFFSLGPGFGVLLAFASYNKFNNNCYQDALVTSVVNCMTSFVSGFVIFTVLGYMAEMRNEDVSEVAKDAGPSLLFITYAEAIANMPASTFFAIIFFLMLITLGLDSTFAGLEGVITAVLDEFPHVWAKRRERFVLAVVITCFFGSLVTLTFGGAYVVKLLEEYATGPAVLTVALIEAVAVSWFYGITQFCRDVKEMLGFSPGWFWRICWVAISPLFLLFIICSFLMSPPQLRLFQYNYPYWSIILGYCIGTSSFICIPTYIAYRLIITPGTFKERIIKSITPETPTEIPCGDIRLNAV
T1 sequence (P31645 whole entry): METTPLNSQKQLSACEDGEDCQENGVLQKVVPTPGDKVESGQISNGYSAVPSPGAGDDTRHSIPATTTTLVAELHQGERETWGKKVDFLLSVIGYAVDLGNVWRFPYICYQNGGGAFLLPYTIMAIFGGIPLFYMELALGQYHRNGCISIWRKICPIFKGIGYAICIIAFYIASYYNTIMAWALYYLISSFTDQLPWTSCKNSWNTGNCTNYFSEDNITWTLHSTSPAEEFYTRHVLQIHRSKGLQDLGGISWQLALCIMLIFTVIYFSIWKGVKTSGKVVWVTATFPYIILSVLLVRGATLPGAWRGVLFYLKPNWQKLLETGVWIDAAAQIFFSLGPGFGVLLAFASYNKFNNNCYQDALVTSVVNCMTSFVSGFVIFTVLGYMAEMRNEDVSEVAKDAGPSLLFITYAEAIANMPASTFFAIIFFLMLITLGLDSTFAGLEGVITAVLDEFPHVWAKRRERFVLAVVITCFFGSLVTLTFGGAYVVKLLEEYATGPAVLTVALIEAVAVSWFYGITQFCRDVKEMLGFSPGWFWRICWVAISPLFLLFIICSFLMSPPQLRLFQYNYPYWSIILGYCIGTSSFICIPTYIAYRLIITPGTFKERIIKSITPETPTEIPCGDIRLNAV
T10 sequence (P31645 whole entry T497A): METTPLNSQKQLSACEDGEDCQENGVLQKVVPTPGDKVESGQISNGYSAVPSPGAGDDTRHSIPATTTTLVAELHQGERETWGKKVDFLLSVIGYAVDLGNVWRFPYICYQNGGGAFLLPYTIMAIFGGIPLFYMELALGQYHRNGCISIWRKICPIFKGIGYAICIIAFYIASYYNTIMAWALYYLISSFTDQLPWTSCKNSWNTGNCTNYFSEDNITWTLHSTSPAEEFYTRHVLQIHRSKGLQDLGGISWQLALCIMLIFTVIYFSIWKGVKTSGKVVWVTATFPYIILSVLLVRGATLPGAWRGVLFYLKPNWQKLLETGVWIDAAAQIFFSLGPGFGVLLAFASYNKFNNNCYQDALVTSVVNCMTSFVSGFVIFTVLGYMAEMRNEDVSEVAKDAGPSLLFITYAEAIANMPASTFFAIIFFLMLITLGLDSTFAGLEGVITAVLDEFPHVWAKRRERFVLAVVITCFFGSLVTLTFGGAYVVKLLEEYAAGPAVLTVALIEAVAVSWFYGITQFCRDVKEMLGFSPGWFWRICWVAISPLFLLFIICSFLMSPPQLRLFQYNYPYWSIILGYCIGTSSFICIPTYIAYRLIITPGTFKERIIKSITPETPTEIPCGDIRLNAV

In the case of `COc1cc([C@@H]2OC[C@@H]3[C@H]2CO[C@H]3c2cc(OC)c(O)c(OC)c2)cc(OC)c1O` [SYR, (-)-syringaresinol], the IC50 (hSERT WT) is reported as 0.96 ± 0.02 µM, the “SYR IC50 for ASP^+ binding relative to WT” value [1] is reported as ≥ 100 fold and the IC50 (hSERT Y95F) is reported as 2.64 ± 0.12 µM. The IC50 (hSERT R564A) was 30.4 ± 1.42 µM, the IC50 (hSERT Q562N) was 48.8 ± 4.51 µM and the IC50 (hSERT F556A) was 21.6 ± 1.2 µM. The IC50 (hSERT P499G [2]) was 46.8 ± 2.35 µM, the “rate constant of MTSEA reactivity with S277C/X5C” value (SERT S277C/X5C) was “decreased” and the “reversal of behavioral abnormalities in FST” value (CUMS mice; 5 mg/kg, i.p., once per day day 7 to 21) was “did not exhibit a significant response”. For the same compound, the “effect in FST” value (CUMS mice; 10 or 20 mg/kg (i.p.)) was “remarkable antidepressant-like effects”, the IC50 (hSERT L563A) was 6.28 ± 0.57 µM and the IC50 (hSERT Y579A) was 28.62 ± 0.15 µM. It also gave an IC50 (hSERT I327A) of 53.2 ± 7.01 µM, an IC50 (hSERT P499G [3]) of 11 ± 1.43 µM and an IC50 (hSERT T497A) of 10.6 ± 2.4 µM. For the same compound, the IC50 (hSERT P560G) was 14.7 ± 0.26 µM.

Reference: paper PMC11678425, “(-)-Syringaresinol Exerts an Antidepressant-like Activity in Mice by Noncompetitive Inhibition of the Serotonin Transporter” (Pharmaceuticals, 2024)
